The series has as its system H9 cells, a human T-cell line. The series can be described thus: Vitamin C uptake in H9 T-cells. Type of series: cell-based. The note with it: 50 μM. Here is the method: At the times indicated in FIG. 13, cells were harvested and measured for vitamin C and protein content. The cellular vitamin C levels of the cells were measured.

The text below walks through data of patent US20240299300A1, “LIPOSOME VITAMIN C PREPARATION” (priority 2023, published 2024).

As to `O=C1O[C@H]([C@@H](O)CO)C(O)=C1O` [nonliposomal vitamin C, ascorbic acid], the “cellular vitamin C level (peak)” value (approximately two hours) stood at 20 nmol/mg protein. Besides, the “cellular vitamin C level” value (fifteen minutes) came out at 6±1.4 nmol/mg protein.
